What all share (test): DTP human tumour cell line panel, 48 h
For assay [1], the system named is M14 melanoma.
Assay [2] concerns MALME-3M melanoma.
Assay [3] relates to OVCAR-5 ovarian.
In assay [4] the test system is U251 CNS.
Assay [5] has as its system EKVX NSCLC.
Assay [6] deals with SNB-75 CNS.
For assay [7], the system named is LOX IMVI melanoma.
Assay [8] has as its system SF-295 CNS.
For assay [9], the system named is TK-10 renal.
Assay [10] has as its system ACHN renal.
The test system of assay [11] is PC-3 prostate.
For assay [12], the system named is A498 renal.
Assay [13] deals with NCI-H23 lung.
Assay [14] deals with OVCAR-8 ovarian.
Assay [15] concerns UACC-62 melanoma.
The subject of assay [16] is SK-MEL-5 melanoma.
For assay [17], the system named is OVCAR-3 ovarian.

By TGI is commonly meant the concentration giving total growth inhibition.

SMILES strings stand for the structures.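 Where inhibition never reached the appropriate level, the endpoint shown equals the highest concentration tested. Otherwise, values were interpolated linearly from a five-concentration, 48-hour dose response in 96-well plates. At the TGI there is no net growth.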

With `C=CCc1cc(C=C(C#N)C#N)cc(OC)c1O`, the TGI in [1], in [2], in assay [3], in assay [4], in assay [5] and in assay [6] was over 100 µM throughout. Besides, the TGI in [7], in [8], in assay [9], in assay [10], in assay [11] and in assay [12] was over 100 µM in each case. The TGI in assay [13], in assay [14], in assay [15], in [16] and in assay [17] was over 100 µM throughout.

Turning to `Cc1cc(C)nc(SCC(=O)OC2CC(C)CCC2C(C)C)n1` (configuration not stated), the TGI stood at 37 µM in [1]; 41.1 µM in assay [2]; 47.9 µM in assay [3]; 53.8 µM in assay [4]; 39.3 µM in [5]; 65.8 µM in [6]. In addition, the TGI in assay [7] was 37.5 µM; in assay [8], 31.6 µM; in assay [9] it was 89.9 µM; in assay [10], 38.6 µM; in [11], 69.5 µM; in assay [12], 47.2 µM. Also, the TGI is over 100 µM in assay [13]; over 100 µM in assay [14]; 33.9 µM in assay [15]; 29 µM in assay [16]; 28.5 µM in assay [17].

As for `CC(C)COC(=O)OC(=O)c1ccc(N(C)Cc2cnc3nc(N)nc(N)c3n2)cc1`, the TGI in assay [1], in assay [2], in assay [3], in assay [4], in [5] and in [6] was over 100 µM each time. The TGI is over 100 µM in [7]; over 100 µM in [8]; over 100 µM in assay [9]; over 79.4 µM in assay [10]; over 100 µM in assay [11]; over 100 µM in assay [12]. The TGI was over 100 µM in assay [13]; over 100 µM in [14]; over 100 µM in assay [15]; over 93.9 µM in [16]; over 100 µM in [17].

With `CCN1C(=O)/C(=C2\SC(c3ccccc3)(c3ccccc3)c3ccccc32)SC1=S`, the TGI in assay [1], in [2], in assay [3], in assay [4], in assay [5] and in assay [6] was over 100 µM throughout. For the same compound, the TGI in assay [7], in assay [8], in assay [9], in assay [10], in assay [11] and in assay [12] was over 100 µM in each case. Further, the TGI in assay [13], in assay [14], in [15], in [16] and in assay [17] was over 100 µM throughout.

For the compound `CC1(C)OCC(C2OC(OC(=O)c3ccc([N+](=O)[O-])cc3)C3OC(C)(C)OC23)O1` (configuration not stated), the TGI in assay [1] was over 100 µM; in [2], over 100 µM; in [3], over 100 µM; in assay [4], over 100 µM; in [5] it was over 100 µM; in [6], 54.3 µM. The TGI in [7], in assay [8], in [9], in [10], in assay [11] and in [12] was over 100 µM throughout. The TGI in assay [13], in assay [14], in [15], in assay [16] and in [17] was over 100 µM throughout.

`O=c1c(C2=NCCC2)c(-c2ccc[nH]2)[nH]n1-c1ccccc1`: the TGI in assay [1], in assay [2], in [3], in assay [4], in assay [5] and in assay [6] was over 100 µM in each case. Further, the TGI in assay [7], in assay [8], in [9], in assay [10], in assay [11] and in assay [12] was over 100 µM throughout. In addition, the TGI in assay [13], in [14], in assay [15], in assay [16] and in [17] was over 100 µM throughout.

With `C[N+](C)(C)/N=C/c1ccc(O)c(O)c1`, the TGI in assay [1], in [2], in [3], in [4], in [5] and in assay [6] was over 100 µM each time. For the same compound, the TGI in assay [7], in assay [8], in [9], in assay [10], in assay [11] and in assay [12] was over 100 µM in each case. In addition, the TGI in assay [13], in assay [14], in [15], in assay [16] and in assay [17] was over 100 µM in each case.

In the case of `Cc1ccc(S(=O)(=O)N2c3ccccc3[C@H]3CCC=C[C@H]32)cc1`, the TGI in assay [1] is 43.3 µM; in assay [2], 39 µM; in assay [3], over 100 µM; in assay [4], 27.2 µM; in assay [5], over 92.6 µM; in assay [6] it was 42.5 µM. The TGI is 56.5 µM in assay [7]; 32.4 µM in [8]; over 100 µM in assay [9]; over 93.3 µM in assay [10]; over 100 µM in assay [11]; 46.2 µM in assay [12]. For the same compound, the TGI was 52.3 µM in assay [13]; over 88.5 µM in assay [14]; 42.3 µM in assay [15]; over 97.5 µM in assay [16]; 28.4 µM in assay [17].

With `COc1cccc2c3ccccc3c3nc[nH]c3c12`, the TGI in [1], in assay [2], in [3], in [4], in assay [5] and in [6] was over 100 µM throughout. Besides, the TGI in assay [7] was over 100 µM; in assay [8], 46.4 µM; in assay [9], over 75.4 µM; in [10] it was over 100 µM; in assay [11] it was over 100 µM; in assay [12], over 90.5 µM. For the same compound, the TGI in [13] is over 100 µM; in [14] it was over 100 µM; in assay [15], over 100 µM; in [16] it was 30.4 µM; in assay [17], over 100 µM.

On to `NC(=O)C(=CNC(=S)Nc1ccc(Cl)c(Cl)c1)C(N)=O`, for which the TGI in assay [1], in assay [2], in assay [3], in assay [4], in assay [5] and in assay [6] was over 100 µM in each case. Besides, the TGI in assay [7], in assay [8], in assay [9], in assay [10], in [11] and in [12] was over 100 µM throughout. The TGI in assay [13], in [14], in assay [15], in assay [16] and in [17] was over 100 µM in each case.

With `O=C(NNCC(F)(F)F)c1ccncc1`, the TGI in assay [1], in assay [2], in assay [3], in assay [4], in assay [5] and in assay [6] was over 100 µM in each case. The TGI in assay [7], in assay [8], in assay [9], in [10], in assay [11] and in assay [12] was over 100 µM each time. The TGI in assay [13], in assay [14], in [15], in assay [16] and in [17] was over 100 µM each time.

Regarding `CCCCCCCNC(P(=O)(O)O)P(=O)(O)O`, the TGI was over 100 µM in assay [1]; over 100 µM in [2]; over 100 µM in assay [3]; over 100 µM in assay [4]; over 100 µM in [5]; 43.3 µM in [6]. The TGI in assay [7], in [8], in assay [9], in assay [10], in assay [11] and in assay [12] was over 100 µM each time. Further, the TGI in assay [13], in assay [14], in assay [15], in assay [16] and in assay [17] was over 100 µM in each case.

On to `COc1cccc(C2ON=C(c3ccccc3)N2C23CC4CC(CC(C4)C2)C3)c1` (configuration not stated), for which the TGI in assay [1], in assay [2], in assay [3], in assay [4], in [5] and in [6] was over 10 µM in each case. Moreover, the TGI in [7], in [8], in [9], in assay [10], in [11] and in assay [12] was over 10 µM in each case. Further, the TGI in [13], in assay [14], in assay [15], in assay [16] and in assay [17] was over 10 µM in each case.

On to `CCOC(=O)NC(C(=O)OCC)(N1CCN(c2cc3c(cc2F)c(=O)c(C(=O)O)cn3CC)CC1)C(F)(F)F` (configuration not stated), for which the TGI was over 100 µM in [1]; over 100 µM in [2]; over 100 µM in [3]; over 100 µM in [4]; 56.9 µM in [5]; over 100 µM in assay [6]. In addition, the TGI in [7], in assay [8], in assay [9], in assay [10], in [11] and in assay [12] was over 100 µM in each case. For the same compound, the TGI in assay [13] is over 100 µM; in assay [14], 34 µM; in assay [15], over 100 µM; in [16], over 100 µM; in [17], over 100 µM.

Take `COc1cc(C(=O)C2C(=O)c3ccccc3C2C2(O)c3ccccc3CC2C(O)c2cc(OC)c(OC)c(OC)c2)cc(OC)c1OC` (configuration not stated): the TGI in [1] is over 100 µM; in assay [2] it was over 100 µM; in assay [3], over 100 µM; in [4], over 100 µM; in assay [5], over 100 µM; in [6], 94.3 µM. Also, the TGI in [7], in assay [8], in [9], in [10], in assay [11] and in [12] was over 100 µM in each case. The concentration for total growth inhibition (TGI) in [13], in [14], in [15], in [16] and in assay [17] was over 100 µM each time.

`CO/C(=C/C(=O)C(Cl)(Cl)Cl)CC/C(=C\C(=O)C(Cl)(Cl)Cl)OC`: the TGI in assay [1] is 88.3 µM; in assay [2], 66.4 µM; in assay [3], over 100 µM; in [4], 54.7 µM; in assay [5] it was 59.7 µM; in assay [6], over 100 µM. In addition, the TGI in [7] is 41.5 µM; in assay [8], over 100 µM; in assay [9], 73.2 µM; in [10] it was 65.2 µM; in assay [11] it was 87.7 µM; in assay [12] it was over 100 µM. The TGI in [13] was 62.7 µM; in assay [14] it was 56 µM; in assay [15], 46.8 µM; in [16] it was over 100 µM; in [17], 67.7 µM.

(Values after PubChem BioAssay (NCI).)
